These results are taken from publication PMC5218480 (PLoS ONE, 2017).

Each structure is given as a SMILES string.

This assay deals with MV-4-11 cells. The experiment in a line: Gene expression microarray analysis (Affymetrix PrimeView) and GSEA. The format is cell-based, human. More on the design: RFU PODN (11730768_x_at) / Fold change /veh PODN (11730768_x_at) / RFU LINC00158 (11744669_a_at) / Fold change /veh LINC00158 (11744669_a_at) / RFU DUSP10 (11751237_a_at) / Fold change /veh DUSP10 (11751237_a_at) / RFU ID3 (11757404_x_at) / Fold change /veh ID3 (11757404_x_at) / RFU PLEKHG5 (11737974_s_at) / Fold change /veh PLEKHG5 (11737974_s_at) / RFU LRRC4B (11730491_at) / Fold change /veh LRRC4B (11730491_at) / RFU GIMAP4 (11747438_a_at) / Fold change /veh GIMAP4 (11747438_a_at) / RFU KRT8 (11758183_x_at) / Fold change /veh KRT8 (11758183_x_at) / RFU CNN1 (11734310_a_at) / Fold change /veh CNN1 (11734310_a_at) / RFU VPS37D (11726825_at) / Fold change /veh VPS37D (11726825_at) / RFU C10orf10 (11716522_x_at) / Fold change /veh C10orf10 (11716522_x_at) / RFU KIR2DL2 /// KIR2DL4 /// KIR2DL5A /// KIR2DL5B /// KIR2DS1 /// KIR2DS2 /// KIR2DS3 /// KIR2DS4 /// KIR3DL3 /// KIR3DL3 /// KIR3DS1 (11738374_at) / Fold change /veh KIR2DL2 /// KIR2DL4 /// KIR2DL5A /// KIR2DL5B /// KIR2DS1 /// KIR2DS2 /// KIR2DS3 /// KIR2DS4 /// KIR3DL3 /// KIR3DL3 /// KIR3DS1 (11738374_at) / RFU C1QL1 (11718748_at) / Fold change /veh C1QL1 (11718748_at) / RFU TMPRSS4 (11747572_a_at) / Fold change /veh TMPRSS4 (11747572_a_at) / RFU HAMP (11756126_x_at) / Fold change /veh HAMP (11756126_x_at) / RFU RNFT2 (11725882_a_at) / Fold change /veh RNFT2 (11725882_a_at) / RFU NR4A2 (11747474_a_at) / Fold change /veh NR4A2 (11747474_a_at) / RFU ABCC12 (11746883_a_at) / Fold change /veh ABCC12 (11746883_a_at) / RFU TMEM136 (11760407_x_at) / Fold change /veh TMEM136 (11760407_x_at) / RFU CLDN22 /// WWC2 (11732394_at) / Fold change /veh CLDN22 /// WWC2 (11732394_at) / RFU HLA-DPB1 (11760878_x_at) / Fold change /veh HLA-DPB1 (11760878_x_at) / RFU SPINT1 (11716480_a_at) / Fold change /veh SPINT1 (11716480_a_at) / RFU GAP43 (11754022_s_at) / Fold change /veh GAP43 (11754022_s_at) / RFU A4GNT (11735810_at) / Fold change /veh A4GNT (11735810_at) / RFU PRB3 (11715151_x_at) / Fold change /veh PRB3 (11715151_x_at) / RFU TUBB4B (11761932_at) / Fold change /veh TUBB4B (11761932_at) / RFU CAPN14 (11732068_a_at) / Fold change /veh CAPN14 (11732068_a_at) / RFU TMCC2 (11721928_a_at) / Fold change /veh TMCC2 (11721928_a_at) / RFU IRGQ (11745062_a_at) / Fold change /veh IRGQ (11745062_a_at) / RFU FAM174B (11720279_a_at) / Fold change /veh FAM174B (11720279_a_at) / RFU TMPRSS4 (11748680_a_at) / Fold change /veh TMPRSS4 (11748680_a_at) / RFU FAM212B (11763350_a_at) / Fold change /veh FAM212B (11763350_a_at) / RFU PLEKHG5 (11743358_a_at) / Fold change /veh PLEKHG5 (11743358_a_at) / RFU ZSCAN30 (11745921_a_at) / Fold change /veh ZSCAN30 (11745921_a_at) / RFU CMKLR1 (11741424_a_at) / Fold change /veh CMKLR1 (11741424_a_at) / RFU LOC101060620 /// MAPK8IP1 (11723275_at) / Fold change /veh LOC101060620 /// MAPK8IP1 (11723275_at) / RFU SPTSSB (11747773_x_at) / Fold change /veh SPTSSB (11747773_x_at) / RFU PRSS12 (11739890_at) / Fold change /veh PRSS12 (11739890_at) / RFU BIN1 (11741810_x_at) / Fold change /veh BIN1 (11741810_x_at) / RFU WNT11 (11732464_a_at) / Fold change /veh WNT11 (11732464_a_at) / RFU C10orf10 (11716521_a_at) / Fold change /veh C10orf10 (11716521_a_at) / RFU C5orf56 (11738089_at) / Fold change /veh C5orf56 (11738089_at) / RFU CYB561 (11721691_x_at) / Fold change /veh CYB561 (11721691_x_at) / RFU ANKRD19P (11752326_a_at) / Fold change /veh ANKRD19P (11752326_a_at) / RFU OR2T12 /// OR2T33 /// OR2T8 (11738714_s_at) / Fold change /veh OR2T12 /// OR2T33 /// OR2T8 (11738714_s_at) / RFU VCAN (11748164_a_at) / Fold change /veh VCAN (11748164_a_at) / RFU JSRP1 (11732532_at) / Fold change /veh JSRP1 (11732532_at) / RFU KRTAP10-11 (11738290_x_at) / Fold change /veh KRTAP10-11 (11738290_x_at) / RFU MYO3A (11730013_a_at) / Fold change /veh MYO3A (11730013_a_at) / RFU EBF3 (11725865_a_at) / Fold change /veh EBF3 (11725865_a_at) / RFU CAMK2N1 (11719241_x_at) / Fold change /veh CAMK2N1 (11719241_x_at) / RFU C5orf56 (11738088_a_at) / Fold change /veh C5orf56 (11738088_a_at) / RFU OLFML3 (11715873_a_at) / Fold change /veh OLFML3 (11715873_a_at) / RFU LOC100653217 /// NTM (11731650_a_at) / Fold change /veh LOC100653217 /// NTM (11731650_a_at) / RFU MAPK11 (11762145_a_at) / Fold change /veh MAPK11 (11762145_a_at) / RFU FIZ1 (11724087_x_at) / Fold change /veh FIZ1 (11724087_x_at) / RFU OASL (11726364_x_at) / Fold change /veh OASL (11726364_x_at) / RFU SOX15 (11748057_x_at) / Fold change /veh SOX15 (11748057_x_at) / RFU CD79A (11719716_a_at) / Fold change /veh CD79A (11719716_a_at) / RFU HIST1H1D (11736915_at) / Fold change /veh HIST1H1D (11736915_at) / RFU CASKIN2 (11723855_a_at) / Fold change /veh CASKIN2 (11723855_a_at) / RFU LOC730098 (11760151_x_at) / Fold change /veh LOC730098 (11760151_x_at) / RFU OR4N2 (11742367_at) / Fold change /veh OR4N2 (11742367_at) / RFU PRRT2 (11749266_a_at) / Fold change /veh PRRT2 (11749266_a_at) / RFU SNX32 (11753110_a_at) / Fold change /veh SNX32 (11753110_a_at) / RFU CDHR5 (11726645_a_at) / Fold change /veh CDHR5 (11726645_a_at) / RFU RCAN1 (11760418_a_at) / Fold change /veh RCAN1 (11760418_a_at) / RFU FAM167A (11723789_a_at) / Fold change /veh FAM167A (11723789_a_at) / RFU FAM26E (11764081_at) / Fold change /veh FAM26E (11764081_at) / RFU ISYNA1 (11749810_s_at) / Fold change /veh ISYNA1 (11749810_s_at) / RFU ACY1 (11761880_at) / Fold change /veh ACY1 (11761880_at) / RFU 11764098_at / Fold change /veh 11764098_at / RFU SAMD14 (11745864_x_at) / Fold change /veh SAMD14 (11745864_x_at) / RFU NPB (11741838_a_at) / Fold change /veh NPB (11741838_a_at) / RFU TMPRSS6 (11731388_a_at) / Fold change /veh TMPRSS6 (11731388_a_at) / RFU KRTAP10-2 (11738614_at) / Fold change /veh KRTAP10-2 (11738614_at) / RFU ARHGAP8 /// PRR5-ARHGAP8 (11727945_x_at) / Fold change /veh ARHGAP8 /// PRR5-ARHGAP8 (11727945_x_at) / RFU KRTAP5-7 /// NADSYN1 (11734609_at) / Fold change /veh KRTAP5-7 /// NADSYN1 (11734609_at) / RFU RASL12 (11751679_a_at) / Fold change /veh RASL12 (11751679_a_at) / RFU CDKN2B (11736163_a_at) / Fold change /veh CDKN2B (11736163_a_at) / RFU PRF1 (11729649_at) / Fold change /veh PRF1 (11729649_at) / RFU, ZNF638 /// ZNF638-IT1 / Fold change vs veh, ZNF638 /// ZNF638-IT1 / RFU, PANK3 / Fold change vs veh, PANK3 / RFU, SH3YL1 / Fold change vs veh, SH3YL1 / RFU, ZEB2 / Fold change vs veh, ZEB2 / RFU, NRIP1 / Fold change vs veh, NRIP1 / RFU, PTTG1IP / Fold change vs veh, PTTG1IP / RFU, CAPN2 / Fold change vs veh, CAPN2 / RFU, MED14 / Fold change vs veh, MED14 / RFU, SNORA58 / Fold change vs veh, SNORA58 / RFU, C1orf63 / Fold change vs veh, C1orf63 / RFU, LRRFIP1 / Fold change vs veh, LRRFIP1 / RFU, NDUFAF7 / Fold change vs veh, NDUFAF7 / RFU, SLC12A2 / Fold change vs veh, SLC12A2 / RFU, IBTK / Fold change vs veh, IBTK / RFU, ESF1 / Fold change vs veh, ESF1 / Fold change vs veh, TMEM50B / RFU, TAOK1 / Fold change vs veh, TAOK1 / RFU, ACBD3 / Fold change vs veh, ACBD3 / RFU, TMA16 / Fold change vs veh, TMA16 / RFU, RWDD3 / Fold change vs veh, RWDD3 / RFU, BCAT1 / Fold change vs veh, BCAT1 / RFU, EDEM3 / Fold change vs veh, EDEM3 / RFU, TMEM33 / Fold change vs veh, TMEM33 / RFU, WDR75 / Fold change vs veh, WDR75 / RFU, AHCTF1 / Fold change vs veh, AHCTF1 / RFU, TFRC / Fold change vs veh, TFRC / RFU, ZDHHC17 / Fold change vs veh, ZDHHC17 / RFU, NOM1 / Fold change vs veh, NOM1 / RFU, ARL8B / Fold change vs veh, ARL8B / RFU, ZBTB11 / Fold change vs veh, ZBTB11 / RFU, TAMM41 / Fold change vs veh, TAMM41 / RFU, KIAA1704 /// LOC100996395 / Fold change vs veh, KIAA1704 /// LOC100996395 / RFU, ING1 / Fold change vs veh, ING1 / RFU, TRMT61B / Fold change vs veh, TRMT61B / RFU, FUBP3 / Fold change vs veh, FUBP3 / RFU, TP53 / Fold change vs veh, TP53 / RFU, TNKS2 / Fold change vs veh, TNKS2 / RFU, ZFP14 / Fold change vs veh, ZFP14 / RFU, ACTR2 / Fold change vs veh, ACTR2 / RFU, PPP3R1 / Fold change vs veh, PPP3R1 / RFU, PIK3R1 / Fold change vs veh, PIK3R1 / RFU, HNRNPA1 / Fold change vs veh, HNRNPA1 / RFU, RNF170 / Fold change vs veh, RNF170 / RFU, ZNF28 / Fold change vs veh, ZNF28 / RFU, RNGTT / Fold change vs veh, RNGTT / RFU, OGT / Fold change vs veh, OGT / RFU, BRD1 / Fold change vs veh, BRD1 / RFU, MARS / Fold change vs veh, MARS / RFU, ZNF655 / Fold change vs veh, ZNF655 / RFU, FAHD1 / Fold change vs veh, FAHD1 / RFU, BDP1 / Fold change vs veh, BDP1 / RFU, LRRCC1 / Fold change vs veh, LRRCC1 / RFU, ARID1A / Fold change vs veh, ARID1A / RFU, ZNF146 / Fold change vs veh, ZNF146 / RFU, ZNF330 / Fold change vs veh, ZNF330 / RFU, GPN3 / Fold change vs veh, GPN3 / RFU, C9orf123 / Fold change vs veh, C9orf123 / RFU, N4BP2L2 / Fold change vs veh, N4BP2L2 / RFU, ARFIP1 / Fold change vs veh, ARFIP1 / RFU, FAM179B / Fold change vs veh, FAM179B / RFU, BCL10 / Fold change vs veh, BCL10 / RFU, UHRF1BP1L / Fold change vs veh, UHRF1BP1L / RFU, BET1 / Fold change vs veh, BET1 / RFU, CNOT2 / Fold change vs veh, CNOT2 / RFU, ZNF268 / Fold change vs veh, ZNF268 / Fold change vs veh, ZNF507 / RFU, DGCR2 / Fold change vs veh, DGCR2 / RFU, WDSUB1 / Fold change vs veh, WDSUB1 / Fold change vs veh, HSP90B1 /// MIR3652 / RFU, ADSS / Fold change vs veh, ADSS / RFU, GK / Fold change vs veh, GK / RFU, ZNF148 / Fold change vs veh, ZNF148 / RFU, TAF9 / Fold change vs veh, TAF9 / RFU, SLC1A5 / Fold change vs veh, SLC1A5 / RFU, SLMO2 / Fold change vs veh, SLMO2 / RFU, ABCC4 / Fold change vs veh, ABCC4 / RFU, LOC101060439 /// RAP1B / Fold change vs veh, LOC101060439 /// RAP1B / RFU, RFX7 / Fold change vs veh, RFX7 / RFU, GTPBP10 / Fold change vs veh, GTPBP10 / RFU, CNEP1R1 / Fold change vs veh, CNEP1R1 / RFU, BIVM-ERCC5 /// ERCC5 / Fold change vs veh, BIVM-ERCC5 /// ERCC5 / RFU, ILF3 / Fold change vs veh, ILF3 / RFU 11762660_at / Fold change /veh 11762660_at / RFU VCAN (11757783_s_at) / Fold change /veh VCAN (11757783_s_at) / RFU DDX43 (11728927_at) / Fold change /veh DDX43 (11728927_at) / RFU KRT8 (11758188_x_at) / Fold change /veh KRT8 (11758188_x_at) / RFU NKD1 (11759106_at) / Fold change /veh NKD1 (11759106_at) / RFU SRD5A1 (11742802_a_at) / Fold change /veh SRD5A1 (11742802_a_at) / RFU TPSAB1 /// TPSB2 (11721975_s_at) / Fold change /veh TPSAB1 /// TPSB2 (11721975_s_at) / RFU GSTM3 (11746129_a_at) / Fold change /veh GSTM3 (11746129_a_at) / RFU IL23R (11737362_x_at) / Fold change /veh IL23R (11737362_x_at) / RFU TMEM51 (11727254_a_at) / Fold change /veh TMEM51 (11727254_a_at) / RFU PIWIL2 (11732686_x_at) / Fold change /veh PIWIL2 (11732686_x_at) / RFU ORM1 (11744905_x_at) / Fold change /veh ORM1 (11744905_x_at) / RFU CCDC152 (11743942_at) / Fold change /veh CCDC152 (11743942_at) / RFU ECM1 (11717891_a_at) / Fold change /veh ECM1 (11717891_a_at) / RFU IL23R (11748794_a_at) / Fold change /veh IL23R (11748794_a_at) / RFU TNFAIP8L3 (11732012_x_at) / Fold change /veh TNFAIP8L3 (11732012_x_at) / RFU MBOAT4 (11741988_at) / Fold change /veh MBOAT4 (11741988_at) / RFU 11764193_at / Fold change /veh 11764193_at / RFU TMEM53 (11763286_at) / Fold change /veh TMEM53 (11763286_at) / RFU MAGEB2 (11727129_at) / Fold change /veh MAGEB2 (11727129_at) / RFU TMEM200A (11744735_a_at) / Fold change /veh TMEM200A (11744735_a_at) / RFU CCDC152 (11751479_a_at) / Fold change /veh CCDC152 (11751479_a_at) / RFU FAM211A (11726209_a_at) / Fold change /veh FAM211A (11726209_a_at) / RFU RGS16 (11746705_a_at) / Fold change /veh RGS16 (11746705_a_at) / RFU VCAN (11755009_s_at) / Fold change /veh VCAN (11755009_s_at) / RFU RHOB (11743442_s_at) / Fold change /veh RHOB (11743442_s_at) / RFU RGS16 (11720943_a_at) / Fold change /veh RGS16 (11720943_a_at) / RFU RGS16 (11720944_at) / Fold change /veh RGS16 (11720944_at) / RFU, VPS4B / Fold change vs veh, VPS4B / RFU, CREB1 / Fold change vs veh, CREB1 / RFU, DNAJC13 / Fold change vs veh, DNAJC13 / RFU, GNAQ / Fold change vs veh, GNAQ / RFU, CDK5R1 / Fold change vs veh, CDK5R1 / RFU, ZRANB3 / Fold change vs veh, ZRANB3 / RFU, CUL4A / Fold change vs veh, CUL4A / RFU, CCNY / Fold change vs veh, CCNY / RFU, UFL1 / Fold change vs veh, UFL1 / RFU, COG3 / Fold change vs veh, COG3 / RFU, DIAPH2 / Fold change vs veh, DIAPH2 / RFU, SKA2 / Fold change vs veh, SKA2 / RFU, AFF3 / Fold change vs veh, AFF3 / RFU, LMF1 / Fold change vs veh, LMF1 / RFU, IPO11 / Fold change vs veh, IPO11 / RFU, DFFB / Fold change vs veh, DFFB / RFU, FOXP1 / Fold change vs veh, FOXP1 / RFU, CARD8 / Fold change vs veh, CARD8 / RFU, STRN3 / Fold change vs veh, STRN3 / RFU, ADK / Fold change vs veh, ADK / RFU, RASSF2 / Fold change vs veh, RASSF2 / RFU, WIPF1 / Fold change vs veh, WIPF1 / RFU, LARP1B / Fold change vs veh, LARP1B / RFU, RASA1 / Fold change vs veh, RASA1 / RFU, RB1 / Fold change vs veh, RB1 / RFU, PPFIA1 / Fold change vs veh, PPFIA1 / RFU, MAT2A / Fold change vs veh, MAT2A / RFU, CCT5 / Fold change vs veh, CCT5 / RFU, WDR92 / Fold change vs veh, WDR92 / RFU, CUX1 / Fold change vs veh, CUX1 / RFU, TTC7A / Fold change vs veh, TTC7A / RFU, TMEM135 / Fold change vs veh, TMEM135 / RFU, DEPTOR / Fold change vs veh, DEPTOR / RFU, CPM / Fold change vs veh, CPM / RFU, DNAJB6 / Fold change vs veh, DNAJB6 / RFU, CACNA2D3 / Fold change vs veh, CACNA2D3 / RFU, DTX4 / Fold change vs veh, DTX4 / RFU, TFCP2 / Fold change vs veh, TFCP2 / RFU, GMCL1 /// GMCL1P1 / Fold change vs veh, GMCL1 /// GMCL1P1 / RFU, AEBP2 / Fold change vs veh, AEBP2 / RFU, SNHG1 /// SNORD22 /// SNORD25 /// SNORD26 /// SNORD27 /// SNORD28 /// SNORD29 /// SNORD31 / Fold change vs veh, SNHG1 /// SNORD22 /// SNORD25 /// SNORD26 /// SNORD27 /// SNORD28 /// SNORD29 /// SNORD31 / Fold change (Aza/veh), C12orf56 (ProbeSet 11735607_a_at) / Fold change (ACY-1035/veh), C12orf56 (ProbeSet 11735607_a_at) / Fold change (Aza/veh), FGFR1OP (ProbeSet 11751329_s_at) / Fold change (ACY-1035/veh), FGFR1OP (ProbeSet 11751329_s_at) / Fold change (Aza/veh), VPS36 (ProbeSet 11739960_a_at) / Fold change (ACY-1035/veh), VPS36 (ProbeSet 11739960_a_at) / RFU SYPL1 (11715823_x_at) / Fold change /veh SYPL1 (11715823_x_at) / RFU IGFBP7 (11715501_s_at) / Fold change /veh IGFBP7 (11715501_s_at) / RFU REEP3 (11722064_at) / Fold change /veh REEP3 (11722064_at) / RFU IGLL1 (11728026_x_at) / Fold change /veh IGLL1 (11728026_x_at): dose or concentration left out as unconfirmed. To be noted: ProbeSet 11753234_a_at; LIST B.

As to `Nc1ncn([C@@H]2O[C@H](CO)[C@@H](O)[C@H]2O)c(=O)n1` [azacitidine], the “Fold change vs veh, TAMM41” value amounted to 0.86.
